The values below come from US10463040B2, “Composition comprising a pesticide and isononanoic acid N,N-dimethyl amide” (BASF SE, priority 2015, dated 2019).

One data set has as its system wheat and black bindweed. Description: Phytotoxicity laboratory test: plants treated with 2 g of a 1% emulsion, evaluated visually after 3 days. Format: in vivo. Here is the method:
No phytotoxicity in the context of the present invention means that in comparison to untreated plants, 0% of the treated plants have plant injury according to the phytotoxicity method described below.
Phytotoxicity in accordance with the present invention is determined by an assay where e.g. wheat (grasses) or black bindweed (broad leave), are treated with 2 g of a 1% Emulsion described below and are visually evaluated after 3 days of incubation. Plant injury covers the assessment of leave condition as well as resistance to lodging in case of grasses.
The emulsion is prepared by mixing 1% of concentrate with water. The concentrate consists of 7.5% of castor oil ethoxylate (30 EO), 2.5% Ca-Dodecylbenzolsulfonate and 90% carboxylic acid amide. The experimental period lasts for 3 days. During this time, the experimental plants receive optimum watering, with nutrients being supplied via the water used for watering.
The phytotoxicity is evaluated by awarding scores to the treated plants in comparison to untreated plants, i.e. treated with water only. The evaluation scale ranges from 0% to 100% phytotoxicity. The evaluation is done by visual examination. 0% phytotoxicity means that there are no differences between treated and untreated plants. […]
Plants, i.e. wheat and black bindweed, were treated with 2 g of a 1% Emulsion described below and were visually evaluated after 3 days of incubation. […]

A short description of data set [1]: Emulsion stability: 5% of the emulsion concentrate diluted in CIPAC water D, ml cream after 1, 2, 4 and 24 h. Type of data set: physicochemical. Also on record: key to Emulsion 5% in Cipac D 2 h / Emulsion 5% in Cipac D 4 h / Emulsion 5% in Cipac D 1 h / Emulsion 5% in Cipac D 24 h: stable = no cream. To be noted: for Emulsion 5% in Cipac D 1 h / Emulsion 5% in Cipac D 2 h / Emulsion 5% in Cipac D 4 h / Emulsion 5% in Cipac D 24 h: amide 63%; for Stability of the emulsion comprising the amide: summary in words of Example 4. Here is the method: Stable in the context of the present invention means that no cream has formed within 24 hours after mixing components of a formulation. To measure the stability, 5% of the formulation (emulsion concentrate) is diluted in CIPAC water D in a 100 ml cylinder. The resulting oil-in-water emulsion is assessed after 1, 2, 4 and 24 hours.

Data set [2] is described as follows: Determination of the max. solubility of fungicide/herbicide in the carboxylic acid amide (quantitative 1H-NMR of supernatant). Type of data set: physicochemical. Here is the method:
The respective fungicide/herbicide was dissolved in the solvent of interest so that a supersaturated solution was obtained. The deposit was filtered off. The concentration of the fungicide/herbicide in the supernatant was determined via quantitative 1H-NMR spectroscopy.

Where [3] appears, read: Formulation: Oxyfluorfen 25%, Ca Dodecylbenzolsulfonat 2%, Castor oil ethoxylate (35 EO) 10%.
[4] abbreviates: Formulation: Oxyfluorfen 25%, Castor oil ethoxylate (35 EO) 12%.
[5] abbreviates: Formulation: Tebuconazol 25%, Ca Dodecylbenzolsulfonat 2%, Castor oil ethoxylate (35 EO) 10%.
The mark [6] stands for this setting: Formulation: Tebuconazol 25%, Castor oil ethoxylate (35 EO) 12%.

Structures are written as SMILES.

In the case of `CC(CC(=O)N(C)C)CC(C)(C)C` (stereo not drawn) [Isononanoic acid N,N-dimethylamide, isononanoic acid N,N-dimethylamide], the Phytotoxicity in the data set with wheat and black bindweed (3 days after treatment, 1% emulsion of concentrate (7.5% castor oil ethoxylate (30 EO), 2.5% Ca-Dodecylbenzolsulfonate, 90% amide), wheat and black bindweed) is listed as 0 (0 means no damage). For the same molecule, the “Phytotoxic effect on plants” value in the data set with wheat and black bindweed (statement in words in the description) is recorded as “no phytotoxic effect”. Moreover, in data set [1] (setting [3]), the “Emulsion 5% in Cipac D 1 h” value is reported as “stable”, the “Emulsion 5% in Cipac D 2 h” value was “stable”, the “Emulsion 5% in Cipac D 4 h” value is “stable” and the “Emulsion 5% in Cipac D 24 h” value turned out to be 0.5 ml cream. Further, in data set [1] (setting [4]), the “Emulsion 5% in Cipac D 1 h” value is on record as “stable”, the “Emulsion 5% in Cipac D 2 h” value is listed as “stable”, the “Emulsion 5% in Cipac D 4 h” value is “stable” and the “Emulsion 5% in Cipac D 24 h” value was “stable”. For the same molecule, in data set [1] (setting [5]), the “Emulsion 5% in Cipac D 1 h” value is reported as “stable”, the “Emulsion 5% in Cipac D 2 h” value is given as “stable”, the “Emulsion 5% in Cipac D 4 h” value was “stable” and the “Emulsion 5% in Cipac D 24 h” value was found to be 0.5 ml cream. In data set [1] (setting [6]), the “Emulsion 5% in Cipac D 1 h” value is “stable”, the “Emulsion 5% in Cipac D 2 h” value is on record as “stable”, the “Emulsion 5% in Cipac D 4 h” value was 0.5 ml cream and the “Emulsion 5% in Cipac D 24 h” value was 0.5 ml cream. The “Stability of the emulsion comprising the amide” value in data set [1] is listed as “stable”.
On to `CCCCCCCCC(=O)N(C)C` [n-C9 N,N-dimethylamide], for which, in data set [2], the “Solubility [%] Oxyfluorfen” value is 34%, the “Solubility [%] Pyraclostrobin” value was 46% and the “Solubility [%] Tebuconazole” value is 42%. Also, in data set [1] (setting [3]), the “Emulsion 5% in Cipac D 1 h” value was 0.5 ml cream, the “Emulsion 5% in Cipac D 2 h” value amounted to 3 ml cream, the “Emulsion 5% in Cipac D 4 h” value was found to be 4.0 ml cream and the “Emulsion 5% in Cipac D 24 h” value was found to be 6 ml cream. Besides, in data set [1] (setting [4]), the “Emulsion 5% in Cipac D 1 h” value turned out to be 0.5 ml cream, the “Emulsion 5% in Cipac D 2 h” value was determined as 1 ml cream, the “Emulsion 5% in Cipac D 4 h” value was 4.0 ml cream and the “Emulsion 5% in Cipac D 24 h” value was found to be 6 ml cream. Besides, in data set [1] (setting [5]), the “Emulsion 5% in Cipac D 1 h” value came out at 3.0 ml cream, the “Emulsion 5% in Cipac D 2 h” value is listed as 8 ml cream, the “Emulsion 5% in Cipac D 4 h” value came to 8.0 ml cream and the “Emulsion 5% in Cipac D 24 h” value worked out at 8 ml cream. Also, in data set [1] (setting [6]), the “Emulsion 5% in Cipac D 1 h” value is recorded as “stable”, the “Emulsion 5% in Cipac D 2 h” value is 2 ml cream, the “Emulsion 5% in Cipac D 4 h” value turned out to be 3.0 ml cream and the “Emulsion 5% in Cipac D 24 h” value was determined as 3 ml cream. For the same molecule, the “Stability of the emulsion comprising the amide” value in data set [1] is “unstable”.
